{"source": "patent US7375088B2", "about": "“Polyene polyketides, processes for their production and their use as a pharmaceutical” (Thallion Pharmaceuticals Inc., priority 2003, dated 2008)", "key": {"Aspergillus flavus": {"tested_on": "Aspergillus flavus", "test": "Disk diffusion assay (MEC and zone of inhibition)", "type": "cell-based"}, "C. albicans SC5314": {"tested_on": "C. albicans SC5314", "test": "Mouse model of disseminated candidiasis (survival)", "type": "in vivo", "details": "for Median survival: CD-1 mice infected i.v. with C. albicans SC5314, observed 21 days", "procedure": "Compound 2(a) was provided as a dry powder with an estimated purity of 95+%. Fungizone (amphotericin B desoxycholate, to be used as a comparitor), was also provided as a dry powder with an estimated purity of 95+%. The compound 2(a) and Fungizone were stored as dry powders at −80° C. until the day of administration.\nFemale mice (species Mus musculus, strain CD-1, Charles River) with body weight range of 22-24 g were used in the study. […] All animal experiments were performed at the Ste-Justine Hospital (Montreal, Quebec) according to ethical guidelines of animal experimentation of the ethical committee of the hospital. During the study, dead or apparently sick animals were promptly removed and sick mice were euthanized upon removal from the cage.\nThe animals were maintained in rooms under controlled conditions of temperature (23±2° C.), humidity (45±5%), photoperiodicity (12 hrs light/12 hrs dark) and air exchange. The animals were housed in polycarbonate cages (4/single cage) equipped to provide food and water. Sterile wood shavings were used for animal bedding and the bedding was replaced every other day. Food (Harlam Tecklab, Canada) and autoclaved tap water was provided ab libitum, the food being placed in the metal lid on top of the cage. Water bottles were equipped with rubber stoppers and sipper tubes and were cleaned, sterilized and replaced once a week.\nSix groups of mice (10 mice per group) were infected intravenously with 3×10^6 CFU of C. albicans SC5314 as previously described (see Dubois, N., et al., Microbiology 1998, 144: 2299-2310). Twenty-four hours after infection, each individual group of mice was treated with Compound 2(a) (1 or 3 mg/kg i.p.), Fungizone (0.25, 0.5 or 1 mg/kg i.p.) as comparitor, or sham-treated with sterile water containing 5% dextrose and 3% DMSO. Each animal received 100 μl of test solution.\nThe treatment regimen was repeated once daily for a total of 4 days. The mice were observed twice daily for signs of morbidity over 21 days. Moribund animals were scored as non-survivors and euthanized by CO2 inhalation. […]"}, "[1]": {"tested_on": "Candida lusitaniae ATCC 200953", "test": "MIC broth microdilution assay", "details": "Clavispora lusitaniae", "description": "(§1) Test compound preparation: The test article was prepared as 100× stock solutions in DMSO, with concentrations ranging from 3.2 mg/ml to 0.0625 mg/ml (a two-fold dilution series over 10 points). The first dilution (3.2 mg/ml) was prepared by resuspending 0.5 mg of each test article in 156.25 μl of DMSO. The stock is then serially diluted by two-fold increments to obtain the desired concentration range.\n(§2) Inoculum preparation: For fungal strains, the inoculum was prepared as follows. From an overnight culture in Yeast Media broth, cell density was adjusted in 0.85% saline to 0.5 McFarland. This procedure yielded a stock suspension of about 5×10^6 cells/ml. Following thorough vortexing, a working suspension was prepared by diluting the stock 1:50 in RPMI 1640, and then further diluting it 1:20 with RPMI 1640 to obtain the 2× test inoculum (about 5×10^3 cells/ml). For filamentous fungi, the inoculum was prepared as follows. […]\n(§3) 50 μl of the final cell dilution (yeast, filamentous fungi or bacteria) of each indicator strain was added to each corresponding well of the microplate containing 50 μl of diluted drug or media alone. […] MIC readings were determined at 24 and 48 hrs for the Candida and Aspergillus species, and at 48 and 72 hrs for Cryptococcus neoformans. MIC readout for each indicator was determined as the lowest concentration of test compound resulting in total absence of growth."}, "[2]": {"tested_on": "Aspergillus flavus ATCC 204304", "test": "MIC broth microdilution assay", "description": "as §1, §2, §3"}, "[3]": {"tested_on": "Cryptococcus neoformans ATCC 32045", "test": "MIC broth microdilution assay", "description": "as §1, §2, §3"}, "[4]": {"tested_on": "Aspergillus fumigatus ATCC 204305", "test": "MIC broth microdilution assay", "description": "as §1, §2, §3"}, "Aspergillus fumigatus": {"tested_on": "Aspergillus fumigatus", "test": "Disk diffusion assay (MEC and zone of inhibition)", "type": "cell-based"}, "[5]": {"tested_on": "Candida albicans ATCC 10231", "test": "MIC broth microdilution assay", "description": "as §1, §2, §3"}, "[6]": {"tested_on": "Saccharomyces cerevisiae ATCC 9763", "test": "MIC broth microdilution assay", "description": "as §1, §2, §3"}, "[7]": {"details": "at the MEC, 24 hours of incubation"}, "[8]": {"details": "disk diffusion, 24 hours of incubation"}}}
{"smiles": "CC(C=CCCC=CC=CC=CC=CC(=O)NC1=C(O)CCC1=O)C(O)C(C)C(O)C=CC=CC=CC=CC=CCC(OC1OC(C)C(O)C(O)C1O)C(C)C(=O)CC(O)CC(O)CC(O)C=CCC(O)CC(O)CC(O)CC(O)C=CCC(O)CC(O)CCCN", "note": "(stereo not drawn) [Compound 2(a), 56-Amino-15,17,33,35,37,41,43,45,47,51,53-undecahydroxy-14,16,30-trimethyl-31-oxo-29-(3,4,5-trihydroxy-6-methyl-tetrahydro-pyran-2-yloxy)-hexapentaconta-2,4,6,8,12,18,20,22,24,26,38,48-dodecaenoic acid (2-hydroxy-5-oxo-cyclopent-1-enyl)-amide]", "values": [{"measurement": "antifungal activity in disk diffusion assay", "setting": "Aspergillus flavus", "result": "active"}, {"measurement": "ZOI (zone of inhibition of fungal growth calculated for each MEC)", "setting": "Aspergillus flavus; [7]", "result": 2.7, "unit": "mm"}, {"measurement": "MEC (minimum effective concentration)", "setting": "Aspergillus flavus; [8]", "result": 2.5, "unit": "µg/mL"}, {"measurement": "Median survival", "setting": "C. albicans SC5314; 1.0 mg/kg i.p. once daily for 4 days", "result": 8.5, "unit": "days"}, {"measurement": "Median survival", "setting": "C. albicans SC5314; 3.0 mg/kg i.p. once daily for 4 days", "result": 20, "unit": "days"}, {"measurement": "increase of the median survival time of infected mice", "setting": "C. albicans SC5314; versus vehicle (median survival 5 days)", "result": 4, "unit": "fold"}, {"measurement": "MIC", "setting": "[1]; ATCC200953, 24 h", "result": 4, "unit": "µg/mL"}, {"measurement": "MIC", "setting": "[1]; ATCC200953, 48 h", "result": 4, "unit": "µg/mL"}, {"measurement": "MIC", "setting": "[2]; ATCC204304, 24 h", "result": 4, "unit": "µg/mL"}, {"measurement": "MIC", "setting": "[2]; ATCC204304, 48 h", "result": 8, "unit": "µg/mL"}, {"measurement": "MIC", "setting": "[3]; ATCC32045, 48 h", "result": 2, "unit": "µg/mL"}, {"measurement": "MIC", "setting": "[3]; ATCC32045, 72 h", "result": 4, "unit": "µg/mL"}, {"measurement": "MIC", "setting": "[4]; ATCC204305, 24 h", "result": 16, "unit": "µg/mL"}, {"measurement": "MIC", "setting": "[4]; ATCC204305, 48 h", "result": 16, "unit": "µg/mL"}, {"measurement": "antifungal activity in disk diffusion assay", "setting": "Aspergillus fumigatus", "result": "active"}, {"measurement": "ZOI (zone of inhibition of fungal growth calculated for each MEC)", "setting": "Aspergillus fumigatus; [7]", "result": 2.7, "unit": "mm"}, {"measurement": "MEC (minimum effective concentration)", "setting": "Aspergillus fumigatus; [8]", "result": 2.5, "unit": "µg/mL"}, {"measurement": "MIC", "setting": "[5]; ATCC10231, 24 h", "result": 4, "unit": "µg/mL"}, {"measurement": "MIC", "setting": "[5]; ATCC10231, 48 h", "result": 4, "unit": "µg/mL"}, {"measurement": "MIC", "setting": "[6]; ATCC9763, 24 h", "result": 4, "unit": "µg/mL"}, {"measurement": "MIC", "setting": "[6]; ATCC9763, 48 h", "result": 4, "unit": "µg/mL"}]}
